“And” between values parts separate entries of the source, which are not always exact repeats. Equal values may be shown once.

The results in this text go back to ChEMBL document CHEMBL2007661, “Compounds: GSK PKIS; Assays: UNC Frye lab” (2012).

The target in assay [1] is T1, Tyrosine-protein kinase Mer (Homo sapiens) (UniProt Q12866).
T1 sequence (whole entry): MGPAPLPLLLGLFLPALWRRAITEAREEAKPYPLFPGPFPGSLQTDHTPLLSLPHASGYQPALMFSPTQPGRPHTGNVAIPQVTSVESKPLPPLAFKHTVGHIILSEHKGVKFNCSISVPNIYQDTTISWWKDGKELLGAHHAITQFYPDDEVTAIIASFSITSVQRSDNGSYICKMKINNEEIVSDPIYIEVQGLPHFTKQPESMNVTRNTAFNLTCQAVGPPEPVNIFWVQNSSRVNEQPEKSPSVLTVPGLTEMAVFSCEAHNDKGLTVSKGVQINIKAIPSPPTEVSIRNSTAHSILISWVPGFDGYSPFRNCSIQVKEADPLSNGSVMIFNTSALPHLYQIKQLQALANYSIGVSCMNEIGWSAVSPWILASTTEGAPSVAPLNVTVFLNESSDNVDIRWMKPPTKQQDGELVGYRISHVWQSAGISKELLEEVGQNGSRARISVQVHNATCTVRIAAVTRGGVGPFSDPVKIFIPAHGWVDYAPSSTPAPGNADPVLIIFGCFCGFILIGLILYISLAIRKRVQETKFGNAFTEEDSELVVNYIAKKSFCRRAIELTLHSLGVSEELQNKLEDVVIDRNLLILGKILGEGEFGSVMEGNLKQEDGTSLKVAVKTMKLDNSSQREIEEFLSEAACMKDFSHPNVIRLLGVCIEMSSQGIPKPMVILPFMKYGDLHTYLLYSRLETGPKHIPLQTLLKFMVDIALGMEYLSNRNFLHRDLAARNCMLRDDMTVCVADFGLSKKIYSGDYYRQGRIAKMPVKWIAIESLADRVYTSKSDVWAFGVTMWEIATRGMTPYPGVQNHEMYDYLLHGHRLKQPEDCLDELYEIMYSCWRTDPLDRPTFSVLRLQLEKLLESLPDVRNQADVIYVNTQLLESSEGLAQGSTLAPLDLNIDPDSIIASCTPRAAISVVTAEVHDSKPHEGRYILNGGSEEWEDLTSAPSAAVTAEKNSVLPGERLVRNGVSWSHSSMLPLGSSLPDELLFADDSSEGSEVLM
Conditions: at 10 µM.

For assay [2], the target named is T2, Inhibitor of nuclear factor kappa-B kinase subunit beta (Homo sapiens) (UniProt O14920).
T2 sequence (whole entry): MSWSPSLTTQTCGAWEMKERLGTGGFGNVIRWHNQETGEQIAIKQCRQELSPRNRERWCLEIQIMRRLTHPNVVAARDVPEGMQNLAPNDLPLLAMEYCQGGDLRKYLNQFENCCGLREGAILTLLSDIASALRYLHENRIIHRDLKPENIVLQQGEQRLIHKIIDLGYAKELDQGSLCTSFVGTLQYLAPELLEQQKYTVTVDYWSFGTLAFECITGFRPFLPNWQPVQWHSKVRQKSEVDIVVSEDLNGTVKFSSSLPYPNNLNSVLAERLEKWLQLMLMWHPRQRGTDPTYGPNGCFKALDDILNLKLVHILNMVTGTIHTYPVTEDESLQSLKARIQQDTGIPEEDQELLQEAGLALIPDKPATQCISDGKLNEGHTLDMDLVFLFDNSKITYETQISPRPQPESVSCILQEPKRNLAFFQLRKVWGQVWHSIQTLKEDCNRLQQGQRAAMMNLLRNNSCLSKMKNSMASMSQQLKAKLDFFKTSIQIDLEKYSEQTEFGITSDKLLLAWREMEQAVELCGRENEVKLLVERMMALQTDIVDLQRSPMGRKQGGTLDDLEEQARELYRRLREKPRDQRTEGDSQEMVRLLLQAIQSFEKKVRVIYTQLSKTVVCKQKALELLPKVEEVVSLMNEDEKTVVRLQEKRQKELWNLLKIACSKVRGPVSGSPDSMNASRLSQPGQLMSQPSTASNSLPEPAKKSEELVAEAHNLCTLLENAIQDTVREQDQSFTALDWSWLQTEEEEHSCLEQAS
The note with it: at 1 µM.

As for `NC(=O)c1ccc(Oc2nccc(-c3c(-c4ccc(F)cc4)ncn3C3CCNCC3)n2)cc1`, the figures for the inhibition in assay [1] and in assay [2] were 3% and 0%, respectively.

As to `Fc1ccc(Nc2nccc(-c3c(-c4ccc(C(F)(F)F)cc4)nn4ncccc34)n2)cc1F`, the inhibition in assay [1] was -5%; in assay [2], 1% and -2%.

Regarding `CCS(=O)(=O)c1ccc(OC)c(Nc2nccc(N(C)c3ccc4c(C)n[nH]c4c3)n2)c1`, the inhibition in assay [1] was -2%; in assay [2] it was 3% and -7%.

On to `CCCN1CCC=C(c2ccc(Nc3nc(Nc4ccccc4C(N)=O)c4cc[nH]c4n3)c(C)c2)C1`, for which the inhibition in assay [1] was 10%; in assay [2] it was -3% and -1%.

On to `Fc1ccc(-c2ncn(C3CCNCC3)c2-c2ccnc(Oc3ccccc3)n2)cc1`, for which the inhibition was 31% in assay [1] and -2% in assay [2].

Take `CCn1c(-c2nonc2N)nc2cncc(C(=O)N3CC[C@H](N)C3)c21`: the inhibition in assay [1] was 6%; in assay [2], -1% and -5%.

As for `Cc1cc(-c2ccco2)cc(C)c1/C=C/c1cncc(-c2nn[nH]n2)c1`, the inhibition in assay [1] was 86%; in assay [2] it was -1% and -3%.

As for `CS(=O)(=O)Nc1ccc(N/C=C2\C(=O)Nc3ccccc32)cc1`, the inhibition was 2% in assay [1]; -1% and -4% in assay [2].

Take `CCC(=O)Nc1ccc(C)c(-c2ccc(C(=O)NCC3CC3)cc2)c1`: the inhibition was -1% in assay [1] and -4% in assay [2].

Take `Nc1nc(-c2ccc(F)cc2)c(-c2ccc3ncccc3n2)s1`: the inhibition in assay [1] was -2%; in assay [2], -3% and -1%.

On to `COc1cc(N2CCN(C(C)C)CC2)ccc1Nc1nc(Nc2ccc(F)cc2C(=O)NC[C@@H](O)CO)c2cc[nH]c2n1`, for which the inhibition in assay [1] is 0%; in assay [2], -1% and -2%.

For the molecule `Cc1cccc(Nc2ncc(-c3ccccc3)o2)c1`, the inhibition in assay [1] is 38%; in assay [2], 2% and 1%.

Take `CC1=C(C(=O)Nc2ccc3[nH]ncc3c2)C(c2ccc3ccccc3c2)CC(=O)N1` (stereo not given): the inhibition in assay [1] is 47%; in assay [2], -3%.

As to `CCn1c(-c2nonc2N)nc2c(C#CC(C)(C)O)ncc(OC[C@@H]3CCCN3)c21`, the inhibition is -4% in assay [1]; -2% and -1% in assay [2].

On to `CCn1c(-c2nonc2N)nc2c(C#CC(C)(C)O)ncc(OC3CCNCC3)c21`, for which the inhibition in assay [1] is -5%; in assay [2], -4%.

In the case of `Cc1nnc(-c2cccc(-c3ccc(C(=O)NCC4CC4)cc3)c2)o1`, the inhibition in assay [1] and in assay [2] was -4% throughout.

Regarding `CC(C)=Cc1cccc2c1/C(=N/Nc1ccc(S(N)(=O)=O)cc1)C(=O)N2`, the inhibition in assay [1] is 68%; in assay [2], -1% and 0%.

As for `CN(c1ccc(NC(=O)Nc2c(Cl)cccc2Cl)cc1)c1ccnc(Nc2cccc(CS(C)(=O)=O)c2)n1`, the inhibition in assay [1] was -4%; in assay [2], -3% and -5%.

Turning to `Cc1ccc(O)cc1Nc1ccnc2ccc(S(C)(=O)=O)cc12`, the inhibition in assay [1] was 6%; in assay [2] it was -6% and -8%.

In the case of `COc1ccc(-c2oc3ncnc(N)c3c2-c2ccc(NC(=O)Nc3cc(C(F)(F)F)ccc3F)cc2)cc1`, the inhibition in assay [1] was -2%; in assay [2], -8% and -6%.

As for `NS(=O)(=O)c1ccc(N/N=C2\C(=O)Nc3ccc4ncccc4c32)cc1`, the inhibition in assay [1] is -1%; in assay [2] it was -9% and -6%.

As to `CS(=O)(=O)CCN(CC#N)Cc1ccc(-c2ccc3ncnc(Nc4ccc(OCc5cccc(F)c5)c(Cl)c4)c3c2)o1`, the inhibition was 66% in assay [1]; -2% and -1% in assay [2].

For the molecule `COc1ccc(-c2cc(-c3c[nH]nc3-c3ccccn3)ccn2)cc1`, the inhibition in assay [1] is -5%; in assay [2] it was -7% and -8%.

Take `COc1ccc2cc(-c3c(-c4ccncc4)nc(-c4ccc([S+](C)[O-])cc4C)n3C)ccc2c1` (stereo not given): the inhibition in assay [1] was -5%; in assay [2], 1% and 0%.

Turning to `c1ccc(Cc2nc3ccc(Nc4ncnc5ccccc45)cc3[nH]2)cc1`, the inhibition is 4% in assay [1]; -5% and -6% in assay [2].
